According to ChEMBL document CHEMBL1268849, “A conformationally constrained inhibitor with an enhanced potency for β-tryptase and stability against semicarbazide-sensitive amine oxidase (SSAO)” (Bioorg Med Chem Lett, 2010):
pKi: −log10 of the molar value.

Experiments:
[1] = Inhibition of human tryptase-beta using chromogenic substrate S-2366 after 30 mins by spectrophotometry
[2] = tested on: semicarbazide-sensitive amine oxidase (SSAO); experiment: Chemical stability in presence of 56 ug/mL of human recombinant semicarbazide-sensitive amine oxidase assessed as compound remaining after 24 hrs by LC/MS method; type: physicochemical; details: read-out: Stability
[3] = Metabolic stability in human liver microsomes after 20 mins; type: ADME, Microsome; details: read-out: Stability
[4] = Metabolic stability in guinea pig liver microsomes after 20 mins; type: ADME, Cavia porcellus, Microsome; details: read-out: Stability
[5] = Metabolic stability in rat liver microsomes after 20 mins; type: ADME, Microsome; details: read-out: Stability
hERG (KCNH2) = hERG (KCNH2) (Homo sapiens, UniProt Q12809); experiment: Inhibition of human ERG at 10 uM
Cytochrome P450 3A4 = Cytochrome P450 3A4 (Homo sapiens, UniProt P08684); experiment: Inhibition of CYP3A4; type: ADME
Cytochrome P450 3A4, sequence (P08684 whole entry): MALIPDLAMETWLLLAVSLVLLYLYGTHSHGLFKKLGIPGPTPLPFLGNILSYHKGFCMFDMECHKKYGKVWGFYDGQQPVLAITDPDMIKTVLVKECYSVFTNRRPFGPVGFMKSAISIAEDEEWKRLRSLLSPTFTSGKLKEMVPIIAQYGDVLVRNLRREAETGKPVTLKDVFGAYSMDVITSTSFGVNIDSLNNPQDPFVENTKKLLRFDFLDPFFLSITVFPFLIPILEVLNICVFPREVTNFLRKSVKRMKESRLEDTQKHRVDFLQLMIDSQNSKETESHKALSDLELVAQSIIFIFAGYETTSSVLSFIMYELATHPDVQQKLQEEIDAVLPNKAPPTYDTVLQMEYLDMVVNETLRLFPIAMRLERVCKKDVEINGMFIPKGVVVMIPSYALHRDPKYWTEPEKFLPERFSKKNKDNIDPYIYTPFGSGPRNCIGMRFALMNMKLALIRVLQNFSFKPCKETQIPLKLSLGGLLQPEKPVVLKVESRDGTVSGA

hERG (KCNH2), sequence (Q12809 whole entry): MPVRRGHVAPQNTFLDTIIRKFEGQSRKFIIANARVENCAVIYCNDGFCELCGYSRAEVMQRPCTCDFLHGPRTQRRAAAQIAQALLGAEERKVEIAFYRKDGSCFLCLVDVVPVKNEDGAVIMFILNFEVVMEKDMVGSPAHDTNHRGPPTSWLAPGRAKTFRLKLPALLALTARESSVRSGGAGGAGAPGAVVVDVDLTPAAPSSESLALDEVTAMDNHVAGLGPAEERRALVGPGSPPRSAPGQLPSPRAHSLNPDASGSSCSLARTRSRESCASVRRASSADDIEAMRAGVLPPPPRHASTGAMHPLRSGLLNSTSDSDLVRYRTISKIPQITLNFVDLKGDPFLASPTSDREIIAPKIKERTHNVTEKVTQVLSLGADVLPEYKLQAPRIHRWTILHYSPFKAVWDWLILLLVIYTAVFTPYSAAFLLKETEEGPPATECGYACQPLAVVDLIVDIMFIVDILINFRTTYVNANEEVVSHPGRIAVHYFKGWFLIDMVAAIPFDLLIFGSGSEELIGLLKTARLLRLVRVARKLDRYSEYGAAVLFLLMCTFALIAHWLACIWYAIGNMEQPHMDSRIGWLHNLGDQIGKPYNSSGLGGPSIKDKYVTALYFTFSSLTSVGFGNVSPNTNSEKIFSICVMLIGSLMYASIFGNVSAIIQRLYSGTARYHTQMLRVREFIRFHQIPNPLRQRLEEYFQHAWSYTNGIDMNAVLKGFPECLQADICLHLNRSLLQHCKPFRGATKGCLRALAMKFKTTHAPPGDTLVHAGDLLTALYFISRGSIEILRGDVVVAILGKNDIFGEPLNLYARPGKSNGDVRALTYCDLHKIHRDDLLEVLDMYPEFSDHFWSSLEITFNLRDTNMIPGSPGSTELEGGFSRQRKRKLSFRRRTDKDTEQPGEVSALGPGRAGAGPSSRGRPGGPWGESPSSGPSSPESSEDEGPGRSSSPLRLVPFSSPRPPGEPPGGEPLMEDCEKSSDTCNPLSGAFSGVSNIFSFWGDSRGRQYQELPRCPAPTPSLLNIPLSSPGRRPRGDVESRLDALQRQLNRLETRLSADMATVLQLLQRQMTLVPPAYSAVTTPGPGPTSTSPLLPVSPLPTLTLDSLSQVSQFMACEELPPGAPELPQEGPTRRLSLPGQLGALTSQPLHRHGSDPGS

Structure (SMILES) | pKi [1] | remaining at 24 h [2] | remaining at 20 min [3] | remaining at 20 min [4] | remaining at 20 min [5] | inhibition at 10 µM (hERG (KCNH2)) | INH (Cytochrome P450 3A4)
COCCn1cc(C(=O)N2CCC(c3cc(CN)ccc3F)CC2)c2c(C(=O)N(C)C)cccc21.Cl | 7.70 | 100% | 67% | 69% | 92% | 16% | > 30 µM
COCCn1cc(C(=O)N2CCC(c3cc(CN)ccc3F)CC2)c2ccccc21 | 7.27 | 67% | – | – | – | – | –
